Assay: refractive index (Na D-line) (dimensionless); xn = mol fraction of the nth substance listed
Details: 101 kPa, Liquid, Standard Abbe refractometry

CCCCCCCC/C=C\CCCCCCCC(=O)OCC [ethyl (Z)-9-octadeceneoate] + CCCO
refractive index
Details | x2 = 0 | x2 = 0.1 | x2 = 0.2 | x2 = 0.3 | x2 = 0.4 | x2 = 0.5 | x2 = 0.6 | x2 = 0.7 | x2 = 0.8 | x2 = 0.9
293.15 K | 1.4494 | 1.4484 | 1.4468 | 1.4448 | 1.4422 | 1.4388 | 1.4346 | 1.4287 | 1.4205 | 1.408
298.15 K | 1.4474 | 1.4464 | 1.4448 | 1.4427 | 1.4401 | 1.4367 | 1.4325 | 1.4267 | 1.4184 | 1.4058
303.15 K | 1.4454 | 1.4444 | 1.4427 | 1.4406 | 1.4381 | 1.4347 | 1.4305 | 1.4246 | 1.4163 | 1.4037
308.15 K | 1.4433 | 1.4423 | 1.4407 | 1.4386 | 1.436 | 1.4326 | 1.4284 | 1.4225 | 1.4142 | 1.4016
313.15 K | 1.4414 | 1.4403 | 1.4386 | 1.4365 | 1.4339 | 1.4305 | 1.4262 | 1.4204 | 1.4121 | 1.3994
318.15 K | 1.4395 | 1.4382 | 1.4366 | 1.4344 | 1.4318 | 1.4284 | 1.4241 | 1.4183 | 1.4099 | 1.3973
323.15 K | 1.4375 | 1.4362 | 1.4345 | 1.4323 | 1.4297 | 1.4263 | 1.422 | 1.4161 | 1.4078 | 1.3952
328.15 K | 1.4355 | 1.4341 | 1.4325 | 1.4303 | 1.4276 | 1.4242 | 1.4199 | 1.4139 | 1.4057 | 1.393
333.15 K | 1.4335 | 1.4321 | 1.4304 | 1.4282 | 1.4255 | 1.422 | 1.4178 | 1.4118 | 1.4035 | 1.3907
338.15 K | 1.4315 | 1.4301 | 1.4284 | 1.4261 | 1.4234 | 1.4199 | 1.4156 | 1.4096 | 1.4013 | 1.3884
343.15 K | 1.4296 | 1.4281 | 1.4264 | 1.4241 | 1.4213 | 1.4178 | 1.4134 | 1.4074 | 1.3991 | 1.3861

CCCCCCCCCCCCCCCC [hexadecane] + CCCO
refractive index
Details | x2 = 0 | x2 = 0.1 | x2 = 0.2 | x2 = 0.3 | x2 = 0.4 | x2 = 0.5 | x2 = 0.6 | x2 = 0.7 | x2 = 0.8 | x2 = 0.9
293.15 K | 1.434 | 1.4327 | 1.431 | 1.4288 | 1.4266 | 1.4233 | 1.4196 | 1.4148 | 1.4084 | 1.3993
298.15 K | 1.4318 | 1.4305 | 1.4288 | 1.4266 | 1.4244 | 1.4211 | 1.4174 | 1.4127 | 1.4062 | 1.3972
303.15 K | 1.4296 | 1.4284 | 1.4266 | 1.4244 | 1.4222 | 1.4189 | 1.4152 | 1.4105 | 1.4041 | 1.3951
308.15 K | 1.4275 | 1.4262 | 1.4245 | 1.4223 | 1.42 | 1.4167 | 1.4131 | 1.4083 | 1.4019 | 1.3929
313.15 K | 1.4254 | 1.4241 | 1.4223 | 1.4201 | 1.4179 | 1.4145 | 1.4109 | 1.4061 | 1.3998 | 1.3908
318.15 K | 1.4233 | 1.4219 | 1.4201 | 1.4179 | 1.4156 | 1.4123 | 1.4087 | 1.4038 | 1.3976 | 1.3885
323.15 K | 1.4211 | 1.4197 | 1.4179 | 1.4157 | 1.4134 | 1.41 | 1.4064 | 1.4016 | 1.3952 | 1.3863
328.15 K | 1.419 | 1.4176 | 1.4157 | 1.4135 | 1.4112 | 1.4077 | 1.4041 | 1.3993 | 1.393 | 1.3841
333.15 K | 1.4169 | 1.4154 | 1.4135 | 1.4113 | 1.4089 | 1.4054 | 1.4018 | 1.397 | 1.3907 | 1.3818
338.15 K | 1.4149 | 1.4133 | 1.4113 | 1.4091 | 1.4067 | 1.4032 | 1.3995 | 1.3947 | 1.3884 | 1.3795
343.15 K | 1.4129 | 1.4111 | 1.4092 | 1.4069 | 1.4044 | 1.401 | 1.3972 | 1.3924 | 1.386 | 1.3771

CCCCCCCCCCCCCCCC [hexadecane] + CCCCO
refractive index
Details | x2 = 0 | x2 = 0.1 | x2 = 0.2 | x2 = 0.3 | x2 = 0.4 | x2 = 0.5 | x2 = 0.6 | x2 = 0.7 | x2 = 0.8 | x2 = 0.9
293.15 K | 1.434 | 1.4329 | 1.4315 | 1.4295 | 1.4274 | 1.425 | 1.422 | 1.4184 | 1.4139 | 1.4078
298.15 K | 1.4318 | 1.4307 | 1.4293 | 1.4274 | 1.4252 | 1.4228 | 1.4199 | 1.4162 | 1.4118 | 1.4057
303.15 K | 1.4296 | 1.4286 | 1.4271 | 1.4252 | 1.4231 | 1.4206 | 1.4177 | 1.4141 | 1.4096 | 1.4036
308.15 K | 1.4275 | 1.4264 | 1.425 | 1.423 | 1.4209 | 1.4185 | 1.4155 | 1.4119 | 1.4075 | 1.4015
313.15 K | 1.4254 | 1.4242 | 1.4228 | 1.4208 | 1.4187 | 1.4163 | 1.4134 | 1.4097 | 1.4053 | 1.3994
318.15 K | 1.4233 | 1.4221 | 1.4206 | 1.4186 | 1.4165 | 1.4141 | 1.4111 | 1.4075 | 1.4031 | 1.3973
323.15 K | 1.4211 | 1.4199 | 1.4184 | 1.4164 | 1.4143 | 1.4119 | 1.4089 | 1.4053 | 1.4009 | 1.3951
328.15 K | 1.419 | 1.4177 | 1.4162 | 1.4142 | 1.4121 | 1.4097 | 1.4067 | 1.4031 | 1.3987 | 1.3929
333.15 K | 1.4169 | 1.4156 | 1.4141 | 1.4121 | 1.4099 | 1.4074 | 1.4045 | 1.4009 | 1.3965 | 1.3907
338.15 K | 1.4149 | 1.4135 | 1.4119 | 1.4099 | 1.4077 | 1.4052 | 1.4022 | 1.3987 | 1.3942 | 1.3885
343.15 K | 1.4129 | 1.4114 | 1.4097 | 1.4076 | 1.4056 | 1.403 | 1.4 | 1.3964 | 1.392 | 1.3862
